Test results taken from patent US6469028B1, “Synthesis and use of retinoid compounds having negative hormone and/or anatgonist activities” (Allergan, Inc., priority 1995, dated 2002).

Key:
[1] = tested on: retinal pigment epithelium (RPE) cells; experiment: Example 19: proliferation of primary retinal pigment epithelium cultures; format: cell-based, human; details: for RPE cell growth: single agent, 10^−12 to 10^−6M (FIG. 18)
Protocol: Primary cultures of human retinal pigment epithelium (RPE) were established according to the method described by Campochiaro et al. in Invest. Opthal & Vis. Sci. 32:65 (1991). 5×10^4 cells were plated in 16-mm wells of 24-well multiwell plates in DMEM (Gibco) containing 5% FBS. […] Cells were fed with fresh media containing the appropriate concentrations of these compounds every two days for a total of five days of treatment. Cells were removed from the plates by gentle digestion with trypsin and the number of cells was counted with an electronic cell counter.
AGN 193109 was tested for its ability to potentiate the anti-proliferative effect of 13-cis retinoic acid (13-cis RA) in primary RPE cultures using conditions and techniques to measure RPE cell proliferation described above. […] More particularly, 13-cis RA is useful in the treatment of several disease states, including acne (Peck et al. N. Engl. J. Med. 300:329 (1977); Jones et al. Br. J. Dermatol. 108:333 (1980)), and squamous cell carcinoma of the skin and cervix in combination treatment with interferon 2α (Lippman et al. J. Natl. Cancer Inst. 84:241 (1992); Moore et al. Seminars in Hematology 31:31 (1994)).
We next tested the ability of AGN 193109 to potentiate the activities of other nuclear receptor hormones in primary RPE cell cultures. Dexamethasone, a synthetic glucocorticoid receptor agonist, is one member of a class of compounds that have been used clinically for their potent anti-inflammatory and immunosuppressive properties. Thyroid hormone (T3; […]) is a natural thyroid hormone receptor agonist used primarily for hormone replacement therapy in the treatment of hypothyroidism.

primary RPE cells = experiment: Example 27: proliferation of primary RPE cells with TR-1; format: cell-based, Human; details: five days of treatment
Protocol: Human primary RPE cells are obtained and cultured according to standard methods. The cultured cells are divided into four groups and treated as follows. Group 1 receives vehicle alone (ethanol). Group 2 is treated with 13-cis retinoic acid at concentrations ranging from 10^−11 to 10^−6 M. Group 3 is treated with the thyroid hormone inverse agonist TR-1 at concentrations ranging from 10^−11 to […]. Group 4 is co-treated with 13-cis retinoic acid at concentrations ranging from 10^−11 to 10^−6 M TR-1. Cells are refed with fresh growth medium and re-treated with the appropriate compound every two days for a total of five days of treatment. The proliferation rate over the duration of the experiment is quantitated via measurement of the cell number in the cultures using an electric cell counter.

[2] = tested on: patients having retinal detachment resulting from PVR; details: 40 mg oral 13-cis retinoic acid twice daily for four weeks
ER-RAR-α = experiment: Example 10: repression of basal gene activity, ERE-tk-Luc, CV-1 cells; format: cell-based; details: 10^−9 to 10^−6 M, 18 hours, single agent
Source text: (§1) More specifically, these procedures employed the ER-RAR chimeric receptor and ERE-tk-Luc reporter system. The ERE-tk-Luc plasmid includes the region −397 to −87 of the estrogen responsive 5′-flanking region of the Xenopus vitellogenin A2 gene, described by Klein-Hitpass, et al. in Cell 46:1053-1061 (1986), ligated upstream of the HSV thymidine kinase promoter and luciferase reporter gene of plasmid tk-Luc. The ER-RAR chimeric receptors consisted of the estrogen receptor DNA binding domain fused to the “D-E-F” domain of the RARs. Those having ordinary skill in the art appreciate this “D-E-F” domain functions to bind retinoid, to provide a retinoid inducible transactivation function and to provide a contact site for heterodimerization with RXR. Thus, luciferase expression in this reporter system was dependent on activation of the transfected chimeric receptor construct.
(§2) CV-1 cells were co-transfected with the ERE-tk-Luc reporter plasmid and either ER-RAR-α, ER-RAR-β or ER-RAR-γ expression plasmids. The ERE-tk-Luc plasmid contained the estrogen-responsive promoter element of the Xenopus laevis vitellogenin A2 gene and was substantially identical to the reporter plasmid described by Klein-Hitpass et al. in Cell 46:1053 (1986), except that the CAT reporter gene was substituted by a polynucleotide sequence encoding luciferase. The ER-RAR-α, ER-RARβ and ER-RAR-γ chimeric receptor-encoding polynucleotides employed in the co-transfection have been described by Graupner et al. in Biochem. Biophys. Res. Comm. 179:1554 (1991). […] Calcium phosphate transfections were carried out exactly as described in Example 6 using 0.5 μg/well of reporter plasmid and either 0.05 μg, 0.10 μg or 0.2 μg/well of receptor plasmid. […] Cell lysates and luciferase activity measurements were performed as described in Example 6.

ER-RAR-β = experiment: as above; format: cell-based; details: 10^−9 to 10^−6 M, 18 hours, single agent
Source text: as §1, §2

ER-RAR-γ = experiment: as above; format: cell-based; details: 10^−9 to 10^−6 M, 18 hours, single agent
Source text: as §1, §2

[3] = tested on: cultured cervical carcinoma cells; experiment: Example 23: cultured cervical carcinoma cells from a patient biopsy; format: cell-based; details: 10^−10 to 10^−6 M
Source text: A patient presenting with an advanced cervical carcinoma is first identified. A cervical biopsy is obtained according to methods that will be familiar to one having ordinary skill in the art. Cells from the explanted tumor are propagated in tissue culture according to standard techniques to provide cell numbers sufficient to allow division into three sample groups. Culture conditions described by Agarwal et al. in Cancer Res. 54:2108 (1994) are employed for this purpose. The first group is reserved as a control and receives vehicle alone (ethanol). The second group is treated with the RAR agonist retinoic acid at a concentration of from 10^−10 to 10^−6 M. The third group is treated with AGN 193109 at doses ranging from 10^−10 to 10^−6 M. Cells are fed with fresh growth medium daily and are provided with the retinoids described above as appropriate for each sample group. Cells are counted after three days using an electric cell counter.

rabbits = experiment: Example 24: rabbit model of proliferative vitreoretinopathy (PVR); format: in vivo
[4] = tested on: RAR-γ-VP-16 with ER-RXR-α; details: no other retinoid added, 18 hours
RARα = target: T1, RARα (Homo sapiens, UniProt P10276); experiment: Example 8: protease protection analysis; format: biochemical; set-up: host or cells: TNT-coupled reticulocyte lysate in vitro transcription-translation; details: ATRA and AGN 193109 100 nM, AGN 193583 1000 nM; trypsin 25, 50 or 100 μg/ml, 10 minutes
T1 sequence (P10276 1-462): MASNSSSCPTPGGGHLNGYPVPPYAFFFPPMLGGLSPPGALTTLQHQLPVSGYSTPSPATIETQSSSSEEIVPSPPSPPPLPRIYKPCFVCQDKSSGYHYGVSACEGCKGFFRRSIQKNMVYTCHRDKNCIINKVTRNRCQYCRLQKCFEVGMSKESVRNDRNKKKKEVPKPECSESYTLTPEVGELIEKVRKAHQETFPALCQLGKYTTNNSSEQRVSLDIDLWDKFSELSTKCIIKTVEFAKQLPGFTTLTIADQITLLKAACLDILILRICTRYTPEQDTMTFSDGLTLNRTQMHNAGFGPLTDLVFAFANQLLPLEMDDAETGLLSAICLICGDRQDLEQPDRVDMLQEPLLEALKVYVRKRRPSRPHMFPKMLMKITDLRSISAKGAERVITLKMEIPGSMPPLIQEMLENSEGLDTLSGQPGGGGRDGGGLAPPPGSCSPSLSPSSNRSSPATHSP
Protocol: A plasmid constructed in the vector pGEM3Z (Pharmacia) and containing the RAR-α cDNA (Giguere et al. Nature 330:624 (1987)), was used in connection with the TNT-coupled reticulocyte lysate in vitro transcription-translation system (Promega) to prepare [^35S]-methionine labeled RAR-α. Limited proteolytic digestion of the labeled protein RAR-α was carried out according to the method described by Keidel et al. in Mol. Cell. Biol. 14:287 (1994). […] After ligand binding, 1 μl of appropriately concentrated trypsin was added to the mixture to give final concentrations of 25, 50 or 100 μg/ml. Samples were incubated at room temperature for 10 minutes and trypsin digestion stopped by addition of SDS-sample buffer. Samples were subjected to polyacrylamide gel electrophoresis and autoradiographed according to standard procedures.

T3R-VP-16 = experiment: Example 26: thyroid hormone receptor negative hormone assay, CV-1 cells; format: cell-based; details: CV-1 cells with ERE-tk-Luc, ER-RXRα and T3R-VP-16
Source text: CV-1 cells are co-transfected with the luciferase reporter plasmid ERE-tk-Luc and the plasmids ER-RXR-α and T3R-VP-16. T3R-VP-16 is identical to the plasmid RAR-γ-VP-16, except the RAR-γ moiety of RAR-γ-VP-16 has been substituted by the thyroid hormone receptor cDNA. As such, T3R-VP-16 expresses a fusion protein containing the activation domain of HSV VP-16 in frame with the N-terminus of the thyroid hormone receptor. Standard transfection and cell culture methods are employed for this purpose. After transfection, cells are rinsed and fed with growth medium containing 10% fetal calf serum which has been extracted with activated charcoal. Cells are treated with vehicle alone (ethanol), thyroid hormone (10^−9 to 10^−10 M), or compound TR-1 (10^−9 to 10^−6 M). […] Further, TR-1 is capable of antagonizing thyroid hormone mediated transactivation and as such is a thyroid receptor antagonist.

Row | SMILES | effectiveness compared with ATRA ([1]; 13-cis RA 10^−12 to 10^−6M) | RPE cell growth [1] | cellular proliferation, single agent (primary RPE cells) | incidence of retinal redetachment [2] | luciferase reporter activity (ER-RAR-α) | luciferase reporter activity (ER-RAR-β) | luciferase reporter activity (ER-RAR-γ) | RPE cell proliferation ([1]; single-agent treatment (FIG. 19): dexamethasone 10^−11 to 10^−6M, ATRA 10^−12 to 10^−6M) | cell number after three days [3] | frequency and severity of tractional retinal detachment (rabbits; retinoic acid 100 μg intravitreal, single agent) | luciferase activity of triple transfectants [4] | pattern of trypsin sensitivity of labeled RAR-α after prebinding (RARα) | RPE cell proliferation ([1]; thyroid hormone alone, 10^−11 to 10^−6M) | retinal detachment compared with control rabbits (rabbits; second study, single agent 100 μg intravitreal) | luciferase activity (T3R-VP-16)
1 | CC1=C(/C=C/C(C)=C/C=C/C(C)=C\C(=O)O)C(C)(C)CCC1 [13-cis RA, 13-cis retinoic acid, reference compound] | approximately two orders of magnitude less effective | effectively inhibited RPE cell growth | dose dependent decrease in cell number | significantly reduced incidence of retinal redetachment |  |  |  |  |  |  |  |  |  |  | 
2 | CC1=C(/C=C/C(C)=C/C=C/C(C)=C/C(=O)O)C(C)(C)CCC1 [ATRA, all-trans-retinoic acid, reference compound] |  | effectively inhibited RPE cell growth |  |  | strongly induced luciferase expression | strongly induced luciferase expression | strongly induced luciferase expression | substantially unable to inhibit RPE cell proliferation | does not substantially inhibit the growth rate | significantly reduced frequency and severity of retinal detachment | modest increase of luciferase activity over the high basal level | two major protease resistant species |  |  | 
3 | N[C@@H](Cc1cc(I)c(Oc2ccc(O)c(I)c2)c(I)c1)C(=O)O [thyroid hormone, 3,3′,5-triiodothyronine, reference compound] |  |  |  |  |  |  |  |  |  |  |  |  | refractory to single-agent treatment | does not inhibit retinal detachment | slight increase of luciferase activity in a dose dependent manner
